Tests used:
recombinant AaALDH1 = biological target: T1, recombinant AaALDH1 (Artemisia annua, UniProt C5I9X1); test: Characterization of purified recombinant AaALDH1 (kinetic parameters, substrate specificity); format: biochemical; conditions: for substrate for the recombinant AaALDH1: optimum assay conditions, substrate concentration at 10 times the estimated Km; for Km / Vmax: purified recombinant AaALDH1, 50 mM Tris-HCl buffer, pH 8.5, means of three independent experiments
T1 construct: made in house; host or cells: E. coli BL21(DE3)
Protocol: Purification of Recombinant AaALDH1
Cell-free extract of recombinant AaALDH1 was prepared as described above. The cell-free extract was centrifuged at 20,000 g at 4° C. for 15 minutes to remove any remaining insoluble materials before loading onto a His-Trap FF column (Amersham Bioscience, N.J.) equilibrated with binding buffer (20 mM sodium phosphate buffer containing 500 mM NaCl and 20 mM imidazole at pH 7.5). The column was washed with 5 column volume of binding buffer and the recombinant AaALDH1 eluted with elution buffer (20 mM sodium phosphate, 500 mM NaCl, pH 7.5) containing increasing concentration of imidazole in a step-wise fashion. The eluted fractions were concentrated and desalted in centrifugal filter devices (Amicon Ultra—15) (Millipore, Mass.) following manufacturer's protocol. The purity of the recombinant AaALDH1 was checked with SDS gel stained with Rapid Stain (Biosciences, St. Louis, Mo.).
Characterization of Purified Recombinant AaALDH1
The linearity of the assay with respect to time and protein concentration was first established and the operational saturation of substrate and cofactor determined. The pH optimum was determined by the standard assay in 50 mM buffer (sodium phosphate, Tris-HCl and CHES) from pH 6.0 to 10.0 at 0.5 unit interval containing 1 mM NADP and 1.5 micrograms of the purified recombinant AaALDH1. Kinetic parameters were determined in 50 mM Tris-HCl buffer, pH 8.5 by varying the concentration of the substrates. Kinetic constants were determined by non-linear regression analysis using GraphPad software (GraphPad Software Inc. San Diego, Calif.) and the results presented are the means of three independent experiments. Substrates specificity was determined at optimum reaction conditions with substrates concentration at 10 times the estimated Km value. Substrates tested include artemisinic aldehyde, (11R)-dihydroartemisinic aldehyde, artemisinic alcohol, dihydroartemisinic alcohol, octanal, nonanal, 2-phenyl propionaldehyde, 3-cyclohexyl propionaldehyde, 2-hexen-1-al, syringaldehyde.

[1] = biological target: T2, recombinant His-tagged AaALDH1 (Artemisia annua, UniProt C5I9X1); test: In vitro cell-free assay of recombinant His-tagged AaALDH1, GC/MS; format: biochemical; conditions: E. coli cell-free extract, 1 mM NADP, pH 8.5, 30 minutes at 30° C.
T2 construct: made in house; host or cells: E. coli BL21(DE3)
Protocol: (§1) The plasmid pKT032 or pKT041 was introduced into E. coli strain BL21(DE3) (Novagen) using heat shock at 42° C. The GUS gene (Invitrogen) was cloned into pDEST17 to replace the ccdB gene and the construct pDEST-GUS introduced into the E. coli strain BL21(DE3) was used as a control. Transformants were grown on Luria Broth (LB) and selected on ampicillin (100 μg/mL) at 37° C. for 24 hours. A single colony containing pKT032 or pKT041 was used to inoculate 5 mL of LB liquid medium with ampicillin (LBA) and grown at 37° C. overnight with shaking. The overnight culture was used to inoculate 250 mL of LBA liquid medium and grown at 37° C. with shaking to an OD600 of 0.6 per mL followed by induction with 1 mM IPTG and grown at 30° C. overnight with shaking. Cells were pelleted at 2,000 g at 4° C. for 10 minutes. The pelleted cells were resuspended in 6 mL of lysis buffer consisting of 50 mM sodium phosphate, pH 8.0, 0.1 M NaCl, 20 mM imidazole and 1 mM phenylmethylsufonyl fluoride (PMSF). Cells were lysed with lysozyme (0.2 mg/mL of cells) on ice for 30 minutes followed by sonication on ice with 30s pulse (5×). Protein concentration was determined by Bradford assay (Bio-Rad). The AaDBR1 protein was detected by silver stain on SDS gel and confirmed by Western Blot using Anti-His antibody (Invitrogen). The AaALDH1 protein was detected by Rapid Stain (Bioscience, St. Louis, Mo.) on SDS gel. […]

Plasmodium falciparum = conditions: more active than artesunate; cited from earlier work
[2] = system: recombinant His-tagged AaDBR1; test: In vitro cell-free assay of recombinant His-tagged AaDBR1, GC/MS; format: biochemical, Artemisia annua; conditions: E. coli cell-free extract, 1 mM NADPH, pH 7.5, 30 minutes at 30° C.
Protocol: as §1

T1 sequence (C5I9X1 with tags, fused parts or gaps): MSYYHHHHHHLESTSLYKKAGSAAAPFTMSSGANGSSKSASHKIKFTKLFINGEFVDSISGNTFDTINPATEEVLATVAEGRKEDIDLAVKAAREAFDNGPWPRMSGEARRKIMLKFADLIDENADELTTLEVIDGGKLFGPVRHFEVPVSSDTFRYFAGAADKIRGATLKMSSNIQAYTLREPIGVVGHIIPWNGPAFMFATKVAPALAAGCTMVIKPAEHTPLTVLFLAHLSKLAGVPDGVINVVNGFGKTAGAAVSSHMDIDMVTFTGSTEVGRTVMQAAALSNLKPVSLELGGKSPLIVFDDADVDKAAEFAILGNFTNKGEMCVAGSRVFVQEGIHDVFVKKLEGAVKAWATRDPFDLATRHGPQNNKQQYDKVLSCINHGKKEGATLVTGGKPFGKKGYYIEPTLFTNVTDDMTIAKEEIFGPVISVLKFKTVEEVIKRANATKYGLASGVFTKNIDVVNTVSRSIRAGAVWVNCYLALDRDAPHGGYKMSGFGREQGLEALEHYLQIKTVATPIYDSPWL
T2 sequence (C5I9X1 with tags, fused parts or gaps): as above

Structure (SMILES) | substrate for the recombinant AaALDH1 (recombinant AaALDH1) | product formation by AaALDH1 cell-free extract (GC/MS, FIG. 11) [1] | activity relative to artesunate (Plasmodium falciparum) | Km (recombinant AaALDH1) [µM] | Vmax (recombinant AaALDH1) [pkat/μg protein] | product formation by AaDBR1 cell-free extract (GC/MS, FIG. 10) [2]
CC1=C[C@H]2[C@@H](CC1)[C@H](C)CC[C@H]2[C@@H](C)C=O [(11R)-dihydroartemisinic aldehyde] | found to be a substrate | NADP-dependent formation of dihydroartemisinic acid |  |  |  | 
C[C@H]1[C@H](N2CCS(=O)(=O)CC2)O[C@@H]2O[C@@]3(C)CC[C@H]4[C@H](C)CC[C@@H]1[C@@]24OO3 [Artemisone] |  |  | 10-30 fold |  |  | 
C=C(C=O)[C@@H]1CC[C@@H](C)[C@@H]2CCC(C)=C[C@@H]21 [artemisinic aldehyde] | found to be a substrate |  |  | 2.62 | 28.6 | NADPH-dependent formation of (11S)-dihydroartemisinic aldehyde as the major product
CC1=C[C@H]2[C@@H](CC1)[C@H](C)CC[C@H]2[C@@H](C)C(=O)O [dihydroartemisinic acid] |  |  |  | 8.79 | 143.8 | 

Reference: patent publication US8207402B2, “Nucleotide sequences encoding enzymes in biosynthesis of dihydroartemisinic acid” (National Research Council of Canada, priority 2006, dated 2012)
